Test results from PMC6265983, “Identification and Molecular Docking Study of a Novel Angiotensin-I Converting Enzyme Inhibitory Peptide Derived from Enzymatic Hydrolysates of Cyclina sinensis” (Marine Drugs, 2018).
Read-outs that look alike come from different tables or passages of the source. Ends that are not written are not given here.

Key:
[1] = tested on: ACE; conditions: cited from earlier work; for IC50: read-out: IC50, ACE inhibition
Excerpt: Marine species account for about half of the world’s total biodiversity. This diversity, together with the availability of marine resources, have driven the search for new antihypertensive agents, which could be administered as functional foods or dietary supplements. Since the first discovery of a marine-derived peptide with ACE-inhibitory activity, researchers have identified a variety of antihypertensive peptides in hydrolysates from marine species, such as Synodus macrops

[2] = biological target: T1, ACE (from rabbit lung) (Oryctolagus cuniculus, UniProt P12822); test: ACE inhibitory activity (HHL substrate, HPLC of hippuric acid); assay type: biochemical; conditions: synthetic peptide, 37.5 °C 1 h, HPLC 228 nm, read-out: IC50 value, ACE inhibition
T1 construct: ACE (from rabbit lung); purchased Sigma Chemicals Co. (St. Louis, MO, USA); host or cells: rabbit lung tissue
T1 sequence (P12822 34-1310): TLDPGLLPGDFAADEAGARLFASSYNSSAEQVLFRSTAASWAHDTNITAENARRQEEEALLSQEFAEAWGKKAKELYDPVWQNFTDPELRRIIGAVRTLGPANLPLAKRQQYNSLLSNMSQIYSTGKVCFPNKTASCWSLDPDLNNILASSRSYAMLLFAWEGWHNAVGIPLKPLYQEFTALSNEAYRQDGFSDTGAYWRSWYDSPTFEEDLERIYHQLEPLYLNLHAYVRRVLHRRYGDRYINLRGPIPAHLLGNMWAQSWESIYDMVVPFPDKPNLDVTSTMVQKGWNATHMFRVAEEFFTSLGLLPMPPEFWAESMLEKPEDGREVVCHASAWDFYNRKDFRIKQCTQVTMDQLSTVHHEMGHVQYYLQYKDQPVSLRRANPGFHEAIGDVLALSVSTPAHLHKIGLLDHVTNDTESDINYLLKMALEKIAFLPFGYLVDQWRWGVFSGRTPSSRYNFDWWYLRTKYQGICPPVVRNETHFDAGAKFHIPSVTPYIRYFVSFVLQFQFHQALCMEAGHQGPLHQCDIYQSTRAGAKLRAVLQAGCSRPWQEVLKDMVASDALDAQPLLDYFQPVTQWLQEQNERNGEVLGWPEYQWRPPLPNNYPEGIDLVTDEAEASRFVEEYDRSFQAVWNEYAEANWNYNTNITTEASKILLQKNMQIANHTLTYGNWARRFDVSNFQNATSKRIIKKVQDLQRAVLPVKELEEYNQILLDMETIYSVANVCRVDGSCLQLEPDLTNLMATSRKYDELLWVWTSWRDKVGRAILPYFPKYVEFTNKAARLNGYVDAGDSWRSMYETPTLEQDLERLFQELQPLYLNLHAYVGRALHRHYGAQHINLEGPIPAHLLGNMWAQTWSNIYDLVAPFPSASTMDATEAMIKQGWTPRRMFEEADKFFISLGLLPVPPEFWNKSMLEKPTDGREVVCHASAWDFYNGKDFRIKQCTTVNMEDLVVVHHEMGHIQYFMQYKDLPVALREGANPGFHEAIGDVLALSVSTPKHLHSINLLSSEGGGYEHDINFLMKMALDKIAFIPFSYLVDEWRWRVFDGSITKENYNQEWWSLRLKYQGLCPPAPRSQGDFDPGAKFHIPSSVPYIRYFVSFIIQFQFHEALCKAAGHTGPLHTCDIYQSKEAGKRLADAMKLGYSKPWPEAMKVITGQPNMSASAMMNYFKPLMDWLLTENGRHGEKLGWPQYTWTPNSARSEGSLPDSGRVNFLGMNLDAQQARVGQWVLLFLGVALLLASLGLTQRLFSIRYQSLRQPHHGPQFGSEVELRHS
Excerpt: Trypsin (from bovine pancreas, 200 U/mg) and pepsin (from porcine gastric mucosa, 300 U/mg) were purchased from YTHX Biotechnology Co., Ltd. (Beijing, China). ACE (from rabbit lung), and the ACE synthetic substrate hippuryl-L-histidyl-L-leucine (HHL) were purchased from Sigma Chemicals Co. (St. Louis, MO, USA). Other chemicals and reagents used were of analytical grade, except acetonitrile and trifluoroacetic acid (TFA), which were HPLC grade (Sinopharm Chemical Reagent Co., Ltd, Shanghai, China).
To determine the ACE inhibitory activity, we used the method described by D.W.Cushman and Lisete Paiva, with slight modifications. Briefly, 120 μL of 5 mM HHL solution and 20 μL of 1 mg/mL sample solution were mixed thoroughly and pre-incubated for 5 min at 37.5 °C. The control was prepared by replacing the sample solution with 20 μL of 300 mM NaCl in 100 mM borate buffer (pH 8.3). Then, 10 μL of ACE (0.1 U/mL) solution was added, tubes were mixed well, and incubated at 37.5 °C for 1 h in a water bath. […] The reaction solutions were then filtered through a 0.45 μm microporous membrane and quantified by using a ZORBAX SB-C18 analytical column (4.6 mm × 250 mm, 5 μm, 25 °C) and an Agilent HPLC ChemStation, consisting of a G1311C quaternary pump VL, a G1329B standard autosampler, a G1316A column oven, and a G1314F variable wavelength detector. […] Hippuric acid (HA) was detected at 228 nm. […]

[3] = biological target: T1, ACE (from rabbit lung); test: Stability of ACE inhibitory activity in simulated gastric and intestinal fluid; assay type: in vitro ADME; conditions: read-out: ACE inhibitory activity of the control (undigested peptide)
Experimental: Simulated gastric fluid (SGF[sp]): Concentrated hydrochloric acid (37%) was diluted to a 9.5% to 10.5% solution. Then, 800 mL of water and 10 g of pepsin were added to 16.4 mL of this diluted hydrochloric acid solution, mixed well, and the volume completed to 1000 mL with water.
Simulated intestinal fluid (SIF[sp]): 6.8 g of KH2PO4 was dissolved in 500 mL of water, and the pH was adjusted to 6.8 with 0.1 M NaOH. Then ten grams of trypsin were dissolved in an appropriate amount of water, added to the solution described above, and diluted to 1000 mL with water.
The in vitro stability of the ACE inhibitory peptide in the simulated gastrointestinal environments was determined according to the method described by Yu et al [68]. […] (0.5 mg/mL) and incubated for 2 h at 37.5 °C. In addition, the peptide solution was first incubated with SGF[sp] at 37.5 °C for 2 h, the solvent was removed by means of a centrifugal filter concentrator, and was then incubated with SIF[sp] for 2 h. The reaction mixtures were then boiled to inactivate the enzyme. After cooling to room temperature, samples were centrifuged at −4 °C (10000 rpm, 15 min) and the supernatant was adjusted to pH = 7 for the determination of the ACE inhibitory activity.

[4] = from scorpion (Hemiscorpius lepturus) venom

For AFPYYGHHLG, the ACE inhibition mode [1, 4] is listed as “competitive”.

For “AGPPGSDGQPGAK [antihypertensive peptide from Synodus macrops hydrolysate]”, the IC50 ([1]; peptide from Synodus macrops) is given as 420 µM.

For Arg-Tyr-Leu [RYL], the ACE inhibition mode ([1]; from Silkworm Pupa) is listed as “competitive”.

For “IGPR [antihypertensive peptide from Salmo salar]”, the IC50 ([1]; peptides from Salmo salar) is listed as 430 µM.

For “SSSKAKKMP [antihypertensive peptide from shrimps]”, the IC50 ([1]; peptide from shrimps) is listed as 880 µM.

For Tyr-Gln-Lys [YQK], the ACE inhibition mode ([1]; from bovine casein) is given as “competitive”.

In the case of VVSLSIPR, the ACE inhibition mode ([1]; from pigeon pea (Cajanus cajan)) is given as “competitive”.

With WPMGF [WPMGF, Trp-Pro-Met-Gly-Phe] the IC50 [2] was 789 µM and the inhibition at 500 µg/mL [3] was 51.5 ± 0.72%.

For YLYELAR [YLYELAR], the ACE inhibition mode [1, 4] is given as “competitive”.
